In US9932308B2, “Method for producing indoline compound” (UBE INDUSTRIES, LTD., priority 2014, dated 2018):
“Also recorded” adds a separate entry of the source.

How the values were obtained:
Assay type in all cases: physicochemical
[1] = Crushing stability test of crystals of compound (1) (crystal form after crushing); conditions: crushed in a mortar with a pestle
Experimental: The γ-crystal of the compound (1) in the present specification may contain a solvent or the like in addition to the compound (1), as described in Patent Literature 3. In particular, “α-crystal”, “β-crystal”, and “γ-crystal” are each identified by a method described in Patent Literature 3 and, specifically, the identification is performed through measurement of powder X-ray diffraction.
Analysis equipment: Powder X-ray diffractometer, RINT-TTR III (manufactured by Rigaku Corporation)
(§1) An α-crystal, a β-crystal, and a γ-crystal were produced, and each of them was subjected to a photostability test and a crushing stability test under the following conditions.
Each crystal was put in a mortal and crushed with a pestle.

[2] = Thermal stability test of crystal of compound (1) (change in content of compound (E-3) on heating); conditions: for Content (Y) of compound (E-3) measured after test: after heating of the crystal at 70° C. for 192 hours; for Content (Y) of compound (E-3) measured after test / Content (X) of compound (E-3) measured before test: HPLC peak area ratio, 225 nm; for Content (X) of compound (E-3) measured before test: before heating; for Thermal stability of the crystal (conclusion in words) / [Y−X] (difference between Y and X, increase in content of compound (E-3)): heating at 70° C. for 192 hours
Experimental: In the present specification, a “γ-crystal with good stability” is identified by the thermal stability test described later and is one for which [Y−X] (i.e. a difference between Y and X) is less than 0.040% when the content of the compound (E-3) with respect to the total amount of the crystal is expressed as X % and the content of the compound (E-3) as measured after heating of the crystal at 70° C. for 192 hours is expressed as Y %. The crystal structure of the indoline compound is determined using a powder X-ray diffractometer.
The thermal stability test is a test for evaluating a change in the content of the compound (E-3) in the γ-crystal of the compound (1) caused when the crystal is heated at 70° C. for 192 hours. The pre-test content X (%) of the compound (E-3) with respect to the total amount of the crystal and the post-heating content Y (%) of the compound (E-3) with respect to the total amount of the crystal are measured, and the amount of change is calculated by the formula Y−X and expressed as [Y−X]. The content of the compound (E-3) may be on a mass basis or a volume basis. To measure the content of the compound (E-3) with increased accuracy, the measurement may be performed using high-performance liquid chromatography (HPLC). When the content of the compound (E-3) is measured using HPLC, the content can be measured as a value obtained as follows: a peak area of a peak observed in a chromatogram and attributed to the compound (E-3) is divided by the sum of the peak areas of all the peaks.
Compound analysis was performed in the same manner as in the above examples of step A, except that the measurement wavelength and the mobile phase were changed as follows.
Measurement wavelength: 225 nm
Mobile phase and measurement method: 1.0 g of ammonium formate and water were mixed to a volume of 1000 mL, and then 0.53 mL of formic acid was added to adjust the pH of the solution to 3.7. The measurement was performed as the volume ratio between the solution and acetonitrile was varied from 4:1 to 1:1.
(§2) The content of the compound (E-3) was expressed as a value calculated as follows: a peak area of a peak observed in a chromatogram and attributed to the compound (E-3) was divided by the sum of peak areas of all peaks observed in the chromatogram.

[3] = Photostability test of crystals of compound (1); conditions: 4000-lux light at 25° C., relative humidity 60%, 336 hours
Experimental: as §2, §1
Each crystal was left under irradiation of 4000-lux light at 25° C. and a relative humidity of 60% for 336 hours.

| Structure (SMILES) | Content (Y) of compound (E-3) measured after test [2] [%] | Content (X) of compound (E-3) measured before test [2] [%] | Thermal stability of the crystal (conclusion in words) [2] | [Y−X] (difference between Y and X, increase in content of compound (E-3)) [2] [%] | Stability to light (conclusion in words) [3] | Result of crushing stability test (phase transition) [1] |
| --- | --- | --- | --- | --- | --- | --- |
| C[C@H](Cc1cc2c(c(C(N)=O)c1)N(CCCO)CC2)NCCOc1ccccc1OCC(F)(F)F [β-crystal, (−)-1-(3-hydroxypropyl)-5-[(2R)-2-({2-[2-(2,2,2-trifluoroethoxy)phenoxy]ethyl}amino)propyl]-2,3-dihydro-1H-indole-7-carboxamide] | – | – | – | – | – | phase transition was not observed |
| C[C@H](Cc1cc2c(c(C(N)=O)c1)N(CCCO)CC2)NCCOc1ccccc1OCC(F)(F)F [Example C2, (−)-1-(3-hydroxypropyl)-5-[(2R)-2-({2-[2-(2,2,2-trifluoroethoxy)phenoxy]ethyl}amino)propyl]-2,3-dihydro-1H-indole-7-carboxamide] | 0.088 | 0.076 | stable | 0.012 | – | – |
| C[C@H](Cc1cc2c(c(C(N)=O)c1)N(CCCO)CC2)NCCOc1ccccc1OCC(F)(F)F [γ-crystal, (−)-1-(3-hydroxypropyl)-5-[(2R)-2-({2-[2-(2,2,2-trifluoroethoxy)phenoxy]ethyl}amino)propyl]-2,3-dihydro-1H-indole-7-carboxamide] | – | – | – | – | good stability to light | phase transition was not observed; also recorded: does not undergo phase transition even when subjected to crushing |
| C[C@H](Cc1cc2c(c(C(N)=O)c1)N(CCCO)CC2)NCCOc1ccccc1OCC(F)(F)F [Comparative Example C1, (−)-1-(3-hydroxypropyl)-5-[(2R)-2-({2-[2-(2,2,2-trifluoroethoxy)phenoxy]ethyl}amino)propyl]-2,3-dihydro-1H-indole-7-carboxamide, reference compound] | 0.133 | 0.091 | unstable | 0.042 | – | – |

Continued, in another order:

| Content (Y) of compound (E-3) measured after test [2] [%] | Content (X) of compound (E-3) measured before test [2] [%] | Thermal stability of the crystal (conclusion in words) [2] | [Y−X] (difference between Y and X, increase in content of compound (E-3)) [2] [%] | Stability to light (conclusion in words) [3] | Structure (SMILES) | Result of crushing stability test (phase transition) [1] |
| --- | --- | --- | --- | --- | --- | --- |
| 0.091 | 0.067 | stable | 0.024 | – | C[C@H](Cc1cc2c(c(C(N)=O)c1)N(CCCO)CC2)NCCOc1ccccc1OCC(F)(F)F [Example C4, (−)-1-(3-hydroxypropyl)-5-[(2R)-2-({2-[2-(2,2,2-trifluoroethoxy)phenoxy]ethyl}amino)propyl]-2,3-dihydro-1H-indole-7-carboxamide] | – |
| 0.044 | 0.043 | stable | 0.001 | – | C[C@H](Cc1cc2c(c(C(N)=O)c1)N(CCCO)CC2)NCCOc1ccccc1OCC(F)(F)F [Example C1, (−)-1-(3-hydroxypropyl)-5-[(2R)-2-({2-[2-(2,2,2-trifluoroethoxy)phenoxy]ethyl}amino)propyl]-2,3-dihydro-1H-indole-7-carboxamide] | – |
| – | – | – | – | the most unstable | C[C@H](Cc1cc2c(c(C(N)=O)c1)N(CCCO)CC2)NCCOc1ccccc1OCC(F)(F)F [α-crystal, (−)-1-(3-hydroxypropyl)-5-[(2R)-2-({2-[2-(2,2,2-trifluoroethoxy)phenoxy]ethyl}amino)propyl]-2,3-dihydro-1H-indole-7-carboxamide] | transformed into a γ-crystal; also recorded: the most unstable |
| 0.097 | 0.071 | stable | 0.026 | – | C[C@H](Cc1cc2c(c(C(N)=O)c1)N(CCCO)CC2)NCCOc1ccccc1OCC(F)(F)F [Example C3, (−)-1-(3-hydroxypropyl)-5-[(2R)-2-({2-[2-(2,2,2-trifluoroethoxy)phenoxy]ethyl}amino)propyl]-2,3-dihydro-1H-indole-7-carboxamide] | – |
